Experimental findings from patent US10040759B2, “Substituted azetidinyl compounds as GlyT1 inhibitors” (DART NEUROSCIENCE (CAYMAN) LTD., priority 2014, dated 2018) are described below.

Bounds are passed on as bounds.

This assay addresses T1, GlyT1 (Homo sapiens, UniProt P48067).
T1 construct: expressed in transfected cells
T1 sequence (P48067 1-706): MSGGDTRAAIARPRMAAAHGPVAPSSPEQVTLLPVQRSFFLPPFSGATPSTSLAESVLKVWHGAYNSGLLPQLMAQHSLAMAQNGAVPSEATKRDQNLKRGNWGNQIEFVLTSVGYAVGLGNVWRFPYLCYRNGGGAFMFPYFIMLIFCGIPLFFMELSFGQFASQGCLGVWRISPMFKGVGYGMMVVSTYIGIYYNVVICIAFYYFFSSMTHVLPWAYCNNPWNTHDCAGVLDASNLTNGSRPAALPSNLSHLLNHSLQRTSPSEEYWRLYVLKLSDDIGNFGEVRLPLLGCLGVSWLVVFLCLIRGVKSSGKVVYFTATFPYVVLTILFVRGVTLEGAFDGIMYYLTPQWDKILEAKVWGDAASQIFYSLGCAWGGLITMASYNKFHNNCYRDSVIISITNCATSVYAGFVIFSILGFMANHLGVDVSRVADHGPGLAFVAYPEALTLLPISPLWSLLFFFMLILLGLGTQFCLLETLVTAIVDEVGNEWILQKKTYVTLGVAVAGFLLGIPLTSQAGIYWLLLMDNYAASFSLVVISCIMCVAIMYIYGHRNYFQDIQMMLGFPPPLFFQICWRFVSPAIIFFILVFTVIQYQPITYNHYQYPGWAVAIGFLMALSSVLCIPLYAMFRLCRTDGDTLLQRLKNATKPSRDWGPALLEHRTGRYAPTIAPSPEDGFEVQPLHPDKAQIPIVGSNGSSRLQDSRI
In words: Glycine Transporter 1 (GlyT1) uptake assay, scintillation proximity assay of [14C]-glycine uptake. It counts as cell-based. The conditions noted are these: [14C]-glycine uptake; read-out: GlyT1 (pIC50) (converted). Here is the method:
Glycine Transporter 1 (GlyT1) Uptake Assay
HEK293 cells stably expressing hGlyT1c were plated onto 96-well Cytostar plates at a density of 4.5×10^4 cells per well in 100 μL of growth media (DMEM containing 10% fetal bovine serum) and incubated overnight in a 37° C., 10% CO2 incubator. The following day, stock compounds in 10 mM DMSO were serially diluted in DMSO, and 2× compound solutions were prepared by diluting compound again (1:100) in HBSS. […] Plates were then read on a MicroBeta plate counter (Perkin Elmer). Dose-response data for tested compounds were analyzed and curves were fit using a four parameter logistic fit to determine IC50 values. […]
A general note: Scintillation proximity formats need no separation of bound from free tracer.
With `COc1c(C#N)ccc(O[C@@H](C)C(F)(F)F)c1C(=O)N1CC(c2ncc(C(F)(F)F)cc2C)C1` [Example 11, 2-Methoxy-3-({3-[3-methyl-5-(trifluoromethyl)pyridin-2-yl]azetidin-1-yl}carbonyl)-4-{[(2S)-1,1,1-trifluoropropan-2-yl]oxy}benzonitrile], the IC50 was 100 to 1000 nM. For the molecule `COc1c(C#N)ccc(C2CCCC2)c1C(=O)N1CC(c2ccc(C(F)(F)F)cn2)C1` [Example 12, 4-Cyclopentyl-2-methoxy-3-{3-[5-(trifluoromethyl)pyridin-2-yl]azetidine-1-carbonyl}benzonitrile], the IC50 was under 100 nM. With `COc1c(C#N)ccc(O[C@@H](C)C(F)(F)F)c1C(=O)N1CC(c2ncc(C#N)cc2Cl)C1` [Example 13, 5-Chloro-6-{1-[(3-cyano-2-methoxy-6-{[(2S)-1,1,1-trifluoropropan-2-yl]oxy}phenyl)carbonyl]azetidin-3-yl}pyridine-3-carbonitrile], the IC50 was 100 to 1000 nM. As for `COc1c(C#N)ccc(O[C@@H](C)C(F)(F)F)c1C(=O)N1CC(Nc2ncc(C(F)(F)F)cc2F)C1` [Example 14, 3-[(3-{[3-Fluoro-5-(trifluoromethyl)pyridin-2-yl]amino}azetidin-1-yl)carbonyl]-2-methoxy-4-{[(2S)-1,1,1-trifluoropropan-2-yl]oxy}benzonitrile], the IC50 was 100 to 1000 nM. As to `COc1c(S(C)(=O)=O)ccc(OC(C)C(F)(F)F)c1C(=O)N1CC(c2ccc(F)c(F)c2)C1` (centres unmarked) [Example 15, 3-(3,4-Difluorophenyl)-1-({3-methanesulfonyl-2-methoxy-6-[(1,1,1-trifluoropropan-2-yl)oxy]phenyl}carbonyl)azetidine], the IC50 is under 100 nM. In the case of `COc1c(S(C)(=O)=O)ccc(OC(C)C(F)(F)F)c1C(=O)N1CC(Oc2ccc(F)cc2)C1` (centres unmarked) [Example 16, 3-(4-Fluorophenoxy)-1-({3-methanesulfonyl-2-methoxy-6-[(1,1,1-trifluoropropan-2-yl)oxy]phenyl}carbonyl)azetidine], the IC50 was under 100 nM. As to `COc1c(C#N)ccc(C2(F)CCOCC2)c1C(=O)N1CC(F)(c2ccc(C(F)(F)F)cc2)C1` [Example 17, 3-({3-Fluoro-3-[4-(trifluoromethyl)phenyl]azetidin-1-yl}carbonyl)-4-(4-fluorooxan-4-yl)-2-methoxybenzonitrile], the IC50 was 100 to 1000 nM. Consider `COc1c(C#N)ccc(C2(F)CCOCC2)c1C(=O)N1CC(F)(c2ccc(F)c(F)c2)C1` [Example 18, 3-{[3-(3,4-Difluorophenyl)-3-fluoroazetidin-1-yl]carbonyl}-4-(4-fluorooxan-4-yl)-2-methoxybenzonitrile], for which the IC50 was 100 to 1000 nM.

`COc1c(C#N)ccc(C2(F)CCOCC2)c1C(=O)N1CC(c2cc(F)cc(F)c2)C1` [Example 19, 3-{[3-(3,5-Difluorophenyl)azetidin-1-yl]carbonyl}-4-(4-fluorooxan-4-yl)-2-methoxybenzonitrile]: the IC50 is under 100 nM. For `COc1c(C#N)ccc(C2(F)CCOCC2)c1C(=O)N1CC(c2ccc(Cl)cc2)C1` [Example 20, 3-{[3-(4-Chlorophenyl)azetidin-1-yl]carbonyl}-4-(4-fluorooxan-4-yl)-2-methoxybenzonitrile], the IC50 was under 100 nM.

As to `COc1c(C#N)ccc(C2(F)CCOCC2)c1C(=O)N1CC(c2ccc(F)c(F)c2)C1` [Example 21, 3-{[3-(3,4-Difluorophenyl)azetidin-1-yl]carbonyl}-4-(4-fluorooxan-4-yl)-2-methoxybenzonitrile], the IC50 was 1000 to 10000 nM. Then `COc1c(C#N)ccc(C2(F)CCOCC2)c1C(=O)N1CC(c2ccc(F)cc2)C1` [Example 22, 4-(4-Fluorooxan-4-yl)-3-{[3-(4-fluorophenyl)azetidin-1-yl]carbonyl}-2-methoxybenzonitrile], with over 10000 nM; and `COc1c(C#N)ccc(C2(F)CCOCC2)c1C(=O)N1CC(c2cccc(C(F)(F)F)c2)C1` [Example 23, 4-(4-Fluorooxan-4-yl)-2-methoxy-3-({3-[3-(trifluoromethyl)phenyl]azetidin-1-yl}carbonyl)benzonitrile], with 100 to 1000 nM.

For `COc1c(C#N)ccc(C2(F)CCOCC2)c1C(=O)N1CC(Oc2ccc(C(F)(F)F)cc2)C1` [Example 24, 4-(4-Fluorooxan-4-yl)-2-methoxy-3-({3-[4-(trifluoromethyl)phenoxy]azetidin-1-yl}carbonyl)benzonitrile], the IC50 is 100 to 1000 nM.

`COc1c(C#N)ccc(C2(F)CCOCC2)c1C(=O)N1CC(Oc2ccc(F)c(F)c2)C1` [Example 25, 3-{[3-(3,4-Difluorophenoxy)azetidin-1-yl]carbonyl}-4-(4-fluorooxan-4-yl)-2-methoxybenzonitrile]: the IC50 is 100 to 1000 nM. Regarding `COc1c(C#N)ccc(C2(F)CCOCC2)c1C(=O)N1CC(Oc2ccc(F)cc2)C1` [Example 26, 4-(4-Fluorooxan-4-yl)-3-{[3-(4-fluorophenoxy)azetidin-1-yl]carbonyl}-2-methoxybenzonitrile], the IC50 is 1000 to 10000 nM.

`COc1c(C#N)ccc(C2(F)CCOCC2)c1C(=O)N1CC(c2ccc(C(F)(F)F)nc2)C1` [Example 27, 4-(4-Fluorooxan-4-yl)-2-methoxy-3-({3-[6-(trifluoromethyl)pyridin-3-yl]azetidin-1-yl}carbonyl)benzonitrile]: the IC50 was 100 to 1000 nM. Regarding `COc1c(C#N)ccc(C2(F)CCOCC2)c1C(=O)N1CC(Oc2ccc(Cl)cc2)C1` [Example 28, 3-{[3-(4-Chlorophenoxy)azetidin-1-yl]carbonyl}-4-(4-fluorooxan-4-yl)-2-methoxybenzonitrile], the IC50 is 100 to 1000 nM.

With `COc1c(C#N)ccc(O[C@@H](C)C(F)(F)F)c1C(=O)N1CC(Oc2ccc(Cl)cc2)C1` [Example 29, 3-{[3-(4-Chlorophenoxy)azetidin-1-yl]carbonyl}-2-methoxy-4-{[(2S)-1,1,1-trifluoropropan-2-yl]oxyl}benzonitrile], the IC50 was under 100 nM. For `COc1c(C#N)ccc(O[C@@H](C)C(F)(F)F)c1C(=O)N1CC(Oc2ccc(C(F)(F)F)cc2)C1` [Example 30, 2-Methoxy-3-({3-[4-(trifluoromethyl)phenoxy]azetidin-1-yl}carbonyl)-4-{[(2S)-1,1,1-trifluoropropan-2-yl]oxy}benzonitrile], the IC50 was 100 to 1000 nM.

Turning to `COc1c(C#N)ccc(O[C@@H](C)C(F)(F)F)c1C(=O)N1CC(c2ccc(C(F)(F)F)nc2)C1` [Example 31, 2-Methoxy-3-({3-[6-(trifluoromethyl)pyridin-3-yl]azetidin-1-yl}carbonyl)-4-{[(2S)-1,1,1-trifluoropropan-2-yl]oxy}benzonitrile], the IC50 is 100 to 1000 nM. With `COc1c(C#N)ccc(O[C@@H](C)C(F)(F)F)c1C(=O)N1CC(c2ccc(Cl)cc2)C1` [Example 32, 3-{[3-(4-Chlorophenyl)azetidin-1-yl]carbonyl}-2-methoxy-4-{[(2S)-1,1,1-trifluoropropan-2-yl]oxy}benzonitrile], the IC50 was 100 to 1000 nM.

For the molecule `COc1c(C#N)ccc(O[C@@H](C)C(F)(F)F)c1C(=O)N1CC(Oc2ccc(F)cc2)C1` [Example 33, 3-{[3-(4-Fluorophenoxy)azetidin-1-yl]carbonyl}-2-methoxy-4-{[(2S)-1,1,1-trifluoropropan-2-yl]oxy}benzonitrile], the IC50 was 1000 to 10000 nM.
